From the Deep4Chem optical property database
Blank lines part the entries; values can stand above or below the compound they belong to.

Experiment: photoluminescence quantum yield (fraction); solvent given as SMILES
[1] = in O=P(c1ccccc1)(c1ccccc1)c1ccccc1Oc1ccccc1P(=O)(c1ccccc1)c1ccccc1

Structure (SMILES): CCCCCCCCCC1(CCCCCCCCC)c2cc(C#Cc3ccc(/C=C/c4ccc(N(CCCCCCCC)CCCCCCCC)cc4)cc3)ccc2-c2ccc(C#Cc3ccc(/C=C/c4ccc(N(CCCCCCCC)CCCCCCCC)cc4)cc3)cc21
photoluminescence quantum yield (in Cc1ccccc1): 0.61

Structure (SMILES): F[Si-](F)(c1c2ccccc2cc2ccccc12)(c1c2ccccc2cc2ccccc12)c1c2ccccc2cc2ccccc12
photoluminescence quantum yield (in C1CCOC1): 0.64

Structure (SMILES): CCCc1ccc(C#Cc2cc(C#Cc3ccc(CCC)cc3)c3ccc4c(C#Cc5ccc(N(C)C)cc5)cc(C#Cc5ccc(CCC)cc5)c5ccc2c3c54)cc1
photoluminescence quantum yield (in ClCCl): 0.44

Structure (SMILES): CNc1ncc2nc(C(=O)OC)n(Cc3ccccc3)c2n1
photoluminescence quantum yield (in C1COCCO1): 0.65
photoluminescence quantum yield (in CC#N): 0.66
photoluminescence quantum yield (in CO): 0.61
photoluminescence quantum yield (in ClCCl): 0.65

Structure (SMILES): F[B-]1(F)n2c(ccc2-c2cccs2)C(C(F)(F)F)=C2C=CC(c3cccs3)=[N+]21
photoluminescence quantum yield (in CCCCCC): 1

Structure (SMILES): O=c1c2ccccc2n(-c2ccc(-c3ccc(-n4c5ccccc5c5ccccc54)cc3)cc2)c2ccccc12
photoluminescence quantum yield (in ClCCl): 0.28

Structure (SMILES): N#Cc1ccc(-c2ccc(C3=CCCCC3)s2)s1
photoluminescence quantum yield (in CCO): 0.06

Structure (SMILES): COc1c2ccccc2c(OC)c2c(C#CC(C)(C)C)c3cc4ccccc4cc3c(C#CC(C)(C)C)c12
photoluminescence quantum yield (in C1CCOC1): 0.11
photoluminescence quantum yield (in Cc1ccccc1): 0.1
photoluminescence quantum yield (in ClCCl): 0.09

Structure (SMILES): CC(C)[Si](C#Cc1c2nc3c(nc2c(C#C[Si](C(C)C)(C(C)C)C(C)C)c2nc4c(nc12)C1c2ccccc2C4c2ccccc21)C1c2ccccc2C3c2ccccc21)(C(C)C)C(C)C
photoluminescence quantum yield (in CCCCCC): 0.33

Structure (SMILES): CCC1=C(C)C(=O)n2c1cc1c(C)c(CC(=O)OC)c(C)n1c2=O
photoluminescence quantum yield (in CO): 0.94
photoluminescence quantum yield (in CS(C)=O): 1
photoluminescence quantum yield (in ClC(Cl)Cl): 1
photoluminescence quantum yield (in c1ccccc1): 1

Structure (SMILES): N#CC1=C(c2ccc(-c3cccs3)s2)CC1
photoluminescence quantum yield (in CCO): 0.18

Structure (SMILES): N#Cc1cccc(C#N)c1-n1c2ccccc2c2cc(-c3ccc4c(c3)c3ccccc3n4-c3c(C#N)cccc3C#N)ccc21
photoluminescence quantum yield (in Cc1ccccc1): 0.72
photoluminescence quantum yield [1]: 0.72

Structure (SMILES): CCCC1=Cc2nc1ccc1[nH]c(cc1CCO)c1nc(ccc3[nH]c2cc3CCC)C(CCO)=C1
photoluminescence quantum yield (in Cc1ccccc1): 0.4

Structure (SMILES): c1ccc(-c2nc(-c3ccccc3)nc(-c3cc(-n4c5ccccc5c5ccccc54)c(-n4c5ccccc5c5ncccc54)c(-n4c5ccccc5c5ccccc54)c3)n2)cc1
photoluminescence quantum yield (in O=P(c1ccccc1)(c1ccccc1)c1ccc2oc3ccc(P(=O)(c4ccccc4)c4ccccc4)cc3c2c1): 0.79

Structure (SMILES): F[B-]1(F)n2c(Cl)c(Cl)c(Br)c2C(Cl)=C2C(Br)=C(Cl)C(Cl)=[N+]21
photoluminescence quantum yield (in ClCCl): 0.18

Structure (SMILES): COc1cc(OC)cc(C2=C(c3cc(OC)c(OC)c(OC)c3)C3=Nc4c(-c5cc(OC)c(OC)c(OC)c5)c(-c5cc(OC)cc(OC)c5)c(-c5ccc(C(C)(C)C)cc5)n4[B-](F)(F)[N+]3=C2c2ccc(C(C)(C)C)cc2)c1
photoluminescence quantum yield (in Cc1ccccc1): 0.01

Structure (SMILES): N#Cc1cc2nc3c(nc2cc1C#N)C1c2ccc(N(c4ccccc4)c4ccccc4)cc2C3c2ccc(N(c3ccccc3)c3ccccc3)cc21
photoluminescence quantum yield (in C1CCCCC1): 0.44
photoluminescence quantum yield (in CC#N): 0.01
photoluminescence quantum yield (in Cc1ccccc1): 0.35
photoluminescence quantum yield (in ClCCl): 0.02

Structure (SMILES): CCCCCCC(CCCCCC)N1C(=O)c2cccc3c(-c4ccc(OC)cc4)ccc(c23)C1=O
photoluminescence quantum yield (in CCCCCC): 0.65
photoluminescence quantum yield (in CCCCCCCCCCCCCC): 0.79
photoluminescence quantum yield (in CCCCCCCCCCCO): 0.83
photoluminescence quantum yield (in CCCCO): 0.83
photoluminescence quantum yield (in CN(C)C=O): 0.82
photoluminescence quantum yield (in Cc1ccccc1): 0.75
photoluminescence quantum yield (in ClC(Cl)Cl): 0.83

Structure (SMILES): C[Si](C)(C)C#CC1=CC2=c3cc(C#C[Si](C)(C)C)c4nc(C(F)(F)C(F)(F)C(F)(F)F)nc5c(C#C[Si](C)(C)C)cc(c3c54)C3=CC(C#C[Si](C)(C)C)=C4N=C(C(F)(F)C(F)(F)C(F)(F)F)N=C1C4C32 (stereo not given)
photoluminescence quantum yield (in C1CCOC1): 0.45

Structure (SMILES): CC(=O)N(Cc1ccccn1)c1c2ccccc2c2c3c(cccc13)C(=O)N(Cc1ccccn1)C2=O
photoluminescence quantum yield (in C1CCOC1): 0.36
photoluminescence quantum yield (in CCCCCC): 0.59
photoluminescence quantum yield (in CCO): 0.35
photoluminescence quantum yield (in Cc1ccccc1): 0.52
photoluminescence quantum yield (in ClCCl): 0.48

Structure (SMILES): N#Cc1c(-c2ccc(N(c3ccccc3)c3ccccc3)cc2)c(C#N)c(-c2ccc(N(c3ccccc3)c3ccccc3)cc2)c(C#N)c1-c1ccc(N(c2ccccc2)c2ccccc2)cc1
photoluminescence quantum yield [1]: 1

Structure (SMILES): COc1ccc(/C=C/C=C/C2=NC3C(=O)NC(N)=NC3N2[C@H]2C[C@H](O)[C@@H](CO)O2)cc1 (stereo not given in full)
photoluminescence quantum yield (in C1COCCO1): 0.71
photoluminescence quantum yield (in CC#N): 0.68
photoluminescence quantum yield (in CO): 0.56

Structure (SMILES): CCCCCCCCc1ccc(-c2c3cc(-c4cc(CCCCCCCC)c(-c5ccc(-c6sc(/C=C7\SC(N8CCCCC8)=NC7=O)cc6CCCCCCCC)s5)s4)sc3c(-c3ccc(CCCCCCCC)s3)c3cc(-c4cc(CCCCCCCC)c(-c5ccc(-c6sc(/C=C7\SC(N8CCCCC8)=NC7=O)cc6CCCCCCCC)s5)s4)sc23)s1
photoluminescence quantum yield (in C1CCOC1): 0.214
photoluminescence quantum yield (in Cc1ccccc1): 0.211
photoluminescence quantum yield (in ClC(Cl)Cl): 0.128
photoluminescence quantum yield (in ClCCl): 0.144
photoluminescence quantum yield (in Clc1ccccc1): 0.186

Structure (SMILES): CCOC(=O)C1=C(C)NC2=C(C(=O)c3ccccc32)C1c1ccc(N(C)C)cc1 (stereo not given)
photoluminescence quantum yield (in C1CCOC1): 0.34
photoluminescence quantum yield (in C1COCCO1): 0.43
photoluminescence quantum yield (in CC#N): 0.3
photoluminescence quantum yield (in CCO): 0.092
photoluminescence quantum yield (in CN(C)C=O): 0.33
photoluminescence quantum yield (in CO): 0.035
photoluminescence quantum yield (in CS(C)=O): 0.29
photoluminescence quantum yield (in ClC(Cl)(Cl)Cl): 0.16
photoluminescence quantum yield (in ClC(Cl)Cl): 0.44
photoluminescence quantum yield (in ClCCl): 0.4

Structure (SMILES): COc1ccc(-c2csc(/C(C#N)=C/c3ccc(Cl)cc3)n2)cc1
photoluminescence quantum yield (in CC#N): 0.048

Structure (SMILES): CCCCCCCCCCCCOc1cc2c3c(ccc4c5c(NC6CCCCC6)cc6c7c(ccc(c1c34)c75)C(=O)N(C1CCCCC1)C6=O)C(=O)N(C1CCCCC1)C2=O
photoluminescence quantum yield (in ClC(Cl)Cl): 0.01

Structure (SMILES): COC(=O)c1ccc(NC(=O)c2ccc(N(C)C)cc2)cc1
photoluminescence quantum yield (in C1CCCCC1): 0.0148
photoluminescence quantum yield (in C1CCOC1): 0.198
photoluminescence quantum yield (in CC#N): 0.0209
photoluminescence quantum yield (in CCOCC): 0.0512

Structure (SMILES): CCN(CC)c1ccc2cc(/C(Cl)=C/C=C/C(=C(C#N)C#N)c3ccc(N(c4ccccc4)c4ccccc4)cc3)c(=O)oc2c1
photoluminescence quantum yield (in CC(C)=O): 0.015
photoluminescence quantum yield (in CCOC(C)=O): 0.028
photoluminescence quantum yield (in CN(C)C=O): 0.002
photoluminescence quantum yield (in CS(C)=O): 0.003
photoluminescence quantum yield (in Cc1ccccc1): 0.098
photoluminescence quantum yield (in ClCCl): 0.018

Structure (SMILES): CC[N+]1(CC)CN2C(=N1)C(C(=O)O)=Cc1cc(OC)c(OC)cc12
photoluminescence quantum yield (in O): 0.859

Structure (SMILES): F[B-]1(F)OC(c2ccccc2)=Nc2sc(-c3ccccc3)n[n+]21
photoluminescence quantum yield (in C1CCOC1): 0.02
photoluminescence quantum yield (in CCO): 0.01
photoluminescence quantum yield (in CCOC(C)=O): 0.01
photoluminescence quantum yield (in CN(C)C=O): 0.01
photoluminescence quantum yield (in Cc1ccccc1): 0.06
photoluminescence quantum yield (in ClC(Cl)Cl): 0.05
photoluminescence quantum yield (in ClCCl): 0.03

Structure (SMILES): CCCCCCCCCCCCCCCCCCOC(=O)/C=C/C1=CC2=C(c3c(C)cc(C)cc3C)c3cc(/C=C/C(=O)OCCCCCCCCCCCCCCCCCC)cn3[B-](F)(F)[N+]2=C1
photoluminescence quantum yield (in ClCCl): 0.34

Structure (SMILES): CC(C)[Si](C#Cc1ccc(C#C[Si](C(C)C)(C(C)C)C(C)C)c2nc3c4ccccc4c(=O)c4ccccc4c3nc12)(C(C)C)C(C)C
photoluminescence quantum yield (in ClCCl): 0.08

Structure (SMILES): COc1ccc(-c2ccc(-c3ccc(OC)cc3)cc2)cc1
photoluminescence quantum yield (in C1CCCCC1): 0.64

More lines, now with the values ahead:

photoluminescence quantum yield (in C1COCCO1): 0
photoluminescence quantum yield (in CC#N): 0
photoluminescence quantum yield (in CCCCOCCCC): 0
photoluminescence quantum yield (in CCOC(C)=O): 0
Structure (SMILES): Clc1nc(Cl)nc(Nc2ccc3cc4ccccc4cc3c2)n1

photoluminescence quantum yield (in ClC(Cl)Cl): 0.07
Structure (SMILES): Cc1ccc(N(c2ccc(C)cc2)c2ccc(-c3ccc(C=C(C#N)C#N)s3)cc2)cc1

photoluminescence quantum yield (in C1CCOC1): 0.066
Structure (SMILES): COc1ccc(C(=Cc2ccc(C=O)cc2)c2ccc(OC)cc2)cc1

photoluminescence quantum yield (in ClCCl): 0.17
Structure (SMILES): Cc1cc(C)c(-c2c3ccccc3c3ccc4cc5c(-c6c(C)cc(C)cc6C)c6ccccc6c6ccc7cc2c3c4c7c56)c(C)c1

photoluminescence quantum yield (in CCO): 0.57
Structure (SMILES): COC(=O)CCC(NC(=O)CCNc1cccc2ccccc12)C(=O)OC (stereo not given)

photoluminescence quantum yield (in CC#N): 1
Structure (SMILES): CC1=C(C#Cc2ccccc2)C2=Cc3c(C#Cc4ccccc4)c(C)c(C)n3[B-](F)(F)[N+]2=C1C

photoluminescence quantum yield (in CS(C)=O): 0.03
Structure (SMILES): COc1ccc(/N=N/c2c(O)c3ccccc3n(C)c2=O)c(S(=O)(=O)O)c1

photoluminescence quantum yield (in CO): 0.67
Structure (SMILES): COC(=O)COc1ccc(/C=C/C2=[N+]3C(=C(c4ccc(N(C)C)cc4)c4c(C)cc(C)n4[B-]3(F)F)C(C)=C2)cc1

photoluminescence quantum yield (in CC#N): 0.053
Structure (SMILES): Oc1ccccc1/C=N/CC/N=C/c1ccccc1O

photoluminescence quantum yield (in ClCCl): 0.00491
Structure (SMILES): COC(=O)C1=C(C(=O)OC)C2(c3ccccc3-c3ccccc32)[C@@H](c2ccc(C)cc2)C=C2c3cc(OC)c(OC)cc3CCN21

photoluminescence quantum yield (in CCO): 0.36
photoluminescence quantum yield (in ClCCl): 0.92
Structure (SMILES): COc1ccccc1-c1c2ccc(=[N+]3CCCCC3)cc-2oc2cc(N3CCCCC3)ccc12

photoluminescence quantum yield (in ClC(Cl)Cl): 0.083
Structure (SMILES): CC(C)(C)c1ccc2oc3nc4oc5ccc(N(c6ccccc6)c6ccccc6)cc5c4cc3c2c1

photoluminescence quantum yield (in ClC(Cl)Cl): 0.12
Structure (SMILES): CC(=O)OCCN1C(=O)c2cccc3c(Oc4ccccc4C)ccc(c23)C1=O

photoluminescence quantum yield (in ClCCl): 0.83
Structure (SMILES): CN(C)c1cc(-c2ccc(C#Cc3ccncc3)cc2)cc2ccccc12

photoluminescence quantum yield (in CC#N): 0.22
Structure (SMILES): CCN(CC)c1ccc(/C=N/c2ccccc2/N=C/c2ccc(N(CC)CC)cc2O)c(O)c1

photoluminescence quantum yield (in ClCCl): 0.22
Structure (SMILES): N#Cc1ccc(-c2cc3c(ccc4sccc43)s2)cc1

photoluminescence quantum yield (in ClC(Cl)Cl): 0.77
Structure (SMILES): CCCN1c2ccccc2Sc2cc(/C=C\c3cc(=O)oc4cc(C)c(Cl)cc34)ccc21

photoluminescence quantum yield (in CC#N): 0.95
photoluminescence quantum yield (in CCO): 0.88
photoluminescence quantum yield (in CN(C)C=O): 0.84
photoluminescence quantum yield (in O): 0.85
Structure (SMILES): Nc1ccc2c(-c3ccccc3C(=O)[O-])c3ccc(=[NH2+])cc-3oc2c1

photoluminescence quantum yield (in CO): 0.032
photoluminescence quantum yield (in ClC(Cl)Cl): 0.16
Structure (SMILES): Cc1nc2c(ccc3c2sc(/C=C/C=C/c2ccc(N(C)C)cc2)[n+]3C)s1

photoluminescence quantum yield (in ClCCl): 0.01
Structure (SMILES): CN(c1ccccc1)c1ccc(N(c2ccccc2)c2ccc3ccc4c(N(c5ccccc5)c5ccc(N(C)c6ccccc6)cc5)ccc5ccc2c3c54)cc1

photoluminescence quantum yield (in CC#N): 0.49
photoluminescence quantum yield (in CO): 0.4
photoluminescence quantum yield (in ClCCl): 0.59
Structure (SMILES): CCOC(=O)c1ccc(O)c(-c2[nH]c(=O)n3c2-c2ccccc2C3=O)c1
